# Results from patent publication US20220401514A1, “ANTIMICROBIAL, BACTERIOPHAGE-DERIVED POLYPEPTIDES AND THEIR USE AGAINST GRAM-NEGATIVE AND ACID-FAST BACTERIA” (CONTRAFECT CORPORATION, priority 2019, published 2022).
# Key:
# [1] = test system: P. aeruginosa strain PAO1; assay: MIC against PAO1 in Mueller-Hinton broth with 50% human plasma or human serum; assay type: cell-based, Pseudomonas aeruginosa
# [2] = test system: mature biofilms formed by P. aeruginosa strain ATCC 17647; assay: Minimal Biofilm Eradicating Concentration (MBEC), Calgary Biofilm Device, crystal violet; assay type: cell-based, Pseudomonas aeruginosa
# Protocol: Biofilms are then washed and treated with e.g., a 2-fold dilution series of the lysin in TSBg at e.g., 37° C. for 24 hours. After treatment, wells are washed, air-dried at e.g., 37° C. and stained with e.g., 0.05% crystal violet for 10 minutes.
# Determination of Minimal Biofilm Eradicating Concentrations (MBEC). […] Biofilms were washed and treated with a 2-fold dilution series of each peptide in TSBg at 37° C. for 16 hours. […] The OD600 of extracted crystal violet was determined.
# [3] = test system: P. aeruginosa strain CFS-1292; assay: Time-kill assay in CAA with 2.5% human serum; assay type: cell-based, Pseudomonas aeruginosa; details: for Loss of bacterial viability: CAA with […] human serum, vs untreated controls
# Protocol: Time-Kill Assay of Chp Peptide Activity. […] Exponential phase bacteria were then diluted 1:100 into CAA/HuS and peptide was added at a final concentration of either 1 or 10 μg/mL. Control cultures were included with no peptide added (i.e., buffer control).
# [4] = test system: eight different strains of five species of Gram-negative bacteria; assay: MBEC in eight strains of five species of Gram-negative bacteria; assay type: cell-based; details: 24 h biofilm in LB, 16 h treatment
# Protocol: Determination of Minimal Biofilm Eradicating Concentrations (MBEC). […] The OD600 of extracted crystal violet was determined. The MBEC value of each sample was determined as the minimum drug concentration required to remove >95% of biofilm biomass as assessed by crystal violet quantitation (in comparison to untreated controls).
# MBEC values were likewise determined for Chp2, Chp2-M1, and Chp10-M1 in eight different strains of five species of Gram-negative bacteria. […] The films were then washed and stained with crystal violet to visualize the MBEC.
# [5] = test system: Klebsiella pneumoniae strain 1139; assay: Checkerboard assay (FICI) with antibiotics, K. pneumoniae; assay type: cell-based
# Protocol: Checkerboard assays. […] Checkerboards were constructed by first preparing columns of a 96-well polypropylene microtiter plate, in which each well had the same amount of antibiotic diluted 2-fold along the horizontal axis. […] Summation fractional inhibitory concentration index (FICIs) were calculated for each drug and the minimum FICI was used to determine synergy. FICIs were calculated as follows: FICI=FIC A+FIC B, where FIC A is the MIC of each antibiotic in the combination/MIC of the each antibiotic alone, and FIC B is the MIC of each Chp peptide in the combination/MIC of each Chp peptide alone. The combination is considered synergistic when the FICI is ≤0.5, strongly additive when the FICI is >0.5 to <1, additive with the FICI is 1-<2, and antagonistic when the FICI is ≥2.
# [6] = test system: P. aeruginosa strain CFS 1292; assay type: cell-based, Pseudomonas aeruginosa; details: serial passage
# [7] = checkerboard, in combination with Chp4-M1
# [8] = checkerboard, in combination with Chp6-M1
# [9] = checkerboard, in combination with Chp10-M1
# [10] = checkerboard, in combination with Unp2-M1
molecule,measurement,setting,value
MARRYRLSRRRSRRLFSRTALRMHRRNRLRRIMRGGIRF [Chp4],MIC,[1],2000 ng/mL
same,"Minimal inhibitory concentration, Human Serum",[1],2000 ng/mL
same,MBEC,"[2]; MBEC assay format, summary statement, strain not stated there",0.25 µg/mL
same,MBEC,"[2]; P. aeruginosa ATCC 17647 mature biofilm, tryptic soy broth with 2% glucose",0.25 µg/mL
same,Loss of bacterial viability,"[3]; 1 μg/mL, 1 hour",>3.5 log10 CFU/mL
same,Loss of bacterial viability,"[3]; 1 μg/mL, 3 hours",>4 log10 CFU/mL
same,Loss of bacterial viability,"[3]; 1 μg/mL, 24 hours",>4.8 log10 CFU/mL
same,Loss of bacterial viability,"[3]; 10 μg/mL, 1 hour",>3.5 log10 CFU/mL
same,Loss of bacterial viability,"[3]; 10 μg/mL, 3 hours",>4 log10 CFU/mL
same,Loss of bacterial viability,"[3]; 10 μg/mL, 24 hours",>4.8 log10 CFU/mL
same,bacterial viability after treatment (time-kill),"[3]; 1, 3 and 24 hours, 1 μg/mL and 10 μg/mL, CAA + […] human serum",multi-log fold decreases
"NC[C@H]1O[C@H](O[C@H]2[C@H](O)[C@@H](O[C@H]3O[C@H](CO)[C@@H](O)[C@H](N)[C@H]3O)[C@H](N)C[C@@H]2N)[C@H](N)C[C@@H]1O [tobramycin, reference compound]",MBEC,[4]; A. baumanni (ATCC BAA-747),0.03 µg/mL
same,MBEC,[4]; E. cloacae (CCUG 63317),<0.03 µg/mL
same,MBEC,[4]; E. coli (ATCC 25922),<0.03 µg/mL
same,MBEC,[4]; E. coli (ATCC 35329),<0.03 µg/mL
same,MBEC,[4]; E. coli (EC2),<0.03 µg/mL
same,MBEC,[4]; K. pneumoniae (ATCC 700603),1 µg/mL
same,MBEC,[4]; K. pneumoniae (KP1),1 µg/mL
same,MBEC,[4]; P. aeruginosa (ATCC 27853),0.03 µg/mL
same,Antibiotic FIC,[5]; [7],0.125
same,Antibiotic MIC,[5]; [7],3.906 ng/mL
same,Antibiotic FIC,[5]; [8],0.125
same,Antibiotic MIC,[5]; [8],3.906 ng/mL
same,Antibiotic FIC,[5]; [9],0.125
same,Antibiotic MIC,[5]; [9],3.906 ng/mL
same,Antibiotic FIC,[5]; [10],0.125
same,Antibiotic MIC,[5]; [10],3.906 ng/mL
same,Antibiotic FIC,[5]; combined with Chp2,0.25
same,Antibiotic MIC in checkerboard,[5]; combined with Chp2,7.812 ng/mL
same,Antibiotic FIC,[5]; combined with Chp2-M1,0.25
same,Antibiotic MIC in checkerboard,[5]; combined with Chp2-M1,3.906 ng/mL
same,change in MIC after 21 days,[6],significant increases
